Data taken from US9296723B2, “NAMPT inhibitors” (AbbVie Inc., priority 2012, dated 2016).

Experiments:
[1] = system: PC3 cells; test: NAMPT Cell Proliferation Assay (Cell Titer Glo); type: cell-based; details: Homo sapiens, PC-3, 120 h, incubated 5 days, cell viability
Method in brief: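 PC3 cells (500/well, RPMI with 10% heat-inactivated FBS) were exposed to 10-fold compound dilutions from […] for 5 days at 37 °C, 5% CO2. Viability was read with Cell Titer Glo; IC50 from sigmoidal fit of percent inhibition.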

[2] = biological target: T1, NAMPT (Homo sapiens, UniProt P43490); test: Time-Resolved Fluorescence Resonance Energy Transfer (TR-FRET) Binding Assay of NAMPT; details: 6.8 nM NAMPT, 200 nM probe, equilibrated 3 hours, no substrates
Method in brief: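 Compound was mixed with enzyme, probe and antibody and equilibrated 3 h at room temperature. TR-FRET read at Ex 337 nm, Em 520/495 nm. Ratios were normalized to controls and fitted to a four-parameter logistic equation for IC50.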

[3] = biological target: T1, NAMPT; test: TR-FRET Binding Assay of NAMPT with PRPP; details: 2 nM NAMPT, 2 nM probe, 200 µM PRPP and 2.5 mM ATP, equilibrated 16 hours
Method in brief: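 TR-FRET probe displacement with 2 nM NAMPT, 2 nM probe and 1 nM Tb-anti-His antibody in the presence of 200 µM PRPP and 2.5 mM ATP, 2% DMSO (all final). Equilibrated 16 hours before reading to permit possible enzymatic modification of compounds.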

T1 sequence (P43490 whole entry): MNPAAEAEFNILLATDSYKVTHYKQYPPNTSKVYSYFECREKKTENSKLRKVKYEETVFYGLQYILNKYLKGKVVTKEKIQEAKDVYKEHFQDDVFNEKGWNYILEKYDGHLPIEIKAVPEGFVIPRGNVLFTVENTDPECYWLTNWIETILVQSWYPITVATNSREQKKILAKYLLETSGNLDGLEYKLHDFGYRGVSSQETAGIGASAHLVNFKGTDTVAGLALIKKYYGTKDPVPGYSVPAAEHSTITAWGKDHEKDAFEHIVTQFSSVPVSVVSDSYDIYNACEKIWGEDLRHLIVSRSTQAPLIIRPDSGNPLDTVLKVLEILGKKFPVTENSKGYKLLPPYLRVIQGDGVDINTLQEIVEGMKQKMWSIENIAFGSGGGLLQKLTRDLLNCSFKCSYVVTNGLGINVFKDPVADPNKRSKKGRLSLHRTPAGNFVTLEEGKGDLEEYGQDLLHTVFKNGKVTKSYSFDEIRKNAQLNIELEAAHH

Structure (SMILES)	IC50 [1]	IC50 [2]	IC50 [3]
O=C(CC1CCCC1)N1CC[C@@H](Oc2ccc(NC(=O)N3CC(c4cccnc4)C3)cc2)C1 [Example 300, N-(4-{[(3R)-1-(cyclopentylacetyl)pyrrolidin-3-yl]oxy}phenyl)-3-(pyridin-3-yl)azetidine-1-carboxamide]	17.1 nM	52.6 nM	0.341 nM
O=C(CCN1CCOCC1)N1CC[C@@H](Oc2ccc(NC(=O)N3CC(c4cccnc4)C3)cc2)C1 [Example 321, N-[4-({(3R)-1-[3-(morpholin-4-yl)propanoyl]pyrrolidin-3-yl}oxy)phenyl]-3-(pyridin-3-yl)azetidine-1-carboxamide]	119 nM	176 nM	0.246 nM
CCOCC(=O)N1CCC(Oc2ccc(NC(=O)N3CC(c4cccnc4)C3)cc2)CC1 [Example 46, N-(4-{[1-(ethoxyacetyl)piperidin-4-yl]oxy}phenyl)-3-(pyridin-3-yl)azetidine-1-carboxamide]	44.2 nM	93.1 nM	0.226 nM
O=C(Nc1ccc(OC2CN(C(=O)[C@H]3CCCO3)C2)cc1)N1CC(c2cccnc2)C1 [Example 28, 3-(pyridin-3-yl)-N-[4-({1-[(2R)-tetrahydrofuran-2-ylcarbonyl]azetidin-3-yl}oxy)phenyl]azetidine-1-carboxamide]	64.2 nM	77.2 nM	0.218 nM
O=C(CC1C[C@@H]2CC[C@H]1C2)N1CC(c2ccc(NC(=O)N3CC(c4cccnc4)C3)cc2)C1 (stereo partly drawn) [Example 200, N-(4-{1-[(1S,4R)-bicyclo[2.2.1]hept-2-ylacetyl]azetidin-3-yl}phenyl)-3-(pyridin-3-yl)azetidine-1-carboxamide]	17 nM	36.4 nM	0.382 nM
Cc1ccsc1C(=O)N1CCC(c2ccc(NC(=O)N3CC(c4cccnc4)C3)cc2)C1 (stereo not drawn) [Example 270, N-(4-{1-[(3-methylthiophen-2-yl)carbonyl]pyrrolidin-3-yl}phenyl)-3-(pyridin-3-yl)azetidine-1-carboxamide]	19.5 nM	8.17 nM	0.196 nM
CC(C)(C)C(=O)N1CC(Oc2ccc(NC(=O)N3CC(c4cccnc4)C3)cc2)C1 [Example 128, N-(4-{[1-(2,2-dimethylpropanoyl)azetidin-3-yl]oxy}phenyl)-3-(pyridin-3-yl)azetidine-1-carboxamide]	8.36 nM	30.4 nM	0.519 nM
O=C(Nc1ccc(C2CN(CC3CC3)C2)cc1)N1CC(c2cccnc2)C1 [Example 248, N-{4-[1-(cyclopropylmethyl)azetidin-3-yl]phenyl}-3-(pyridin-3-yl)azetidine-1-carboxamide]	1380 nM	990 nM	0.228 nM
O=C(CC1C[C@@H]2CC[C@H]1C2)N1CC(Oc2ccc(NC(=O)N3CC(c4cccnc4)C3)cc2)C1 (stereo partly drawn) [Example 122, N-[4-({1-[(1S,4R)-bicyclo[2.2.1]hept-2-ylacetyl]azetidin-3-yl}oxy)phenyl]-3-(pyridin-3-yl)azetidine-1-carboxamide]	8.81 nM	16.6 nM	0.588 nM
O=C(Nc1ccc(C2CN(CC3CCCCC3)C2)cc1)N1CC(c2cccnc2)C1 [Example 246, N-{4-[1-(cyclohexylmethyl)azetidin-3-yl]phenyl}-3-(pyridin-3-yl)azetidine-1-carboxamide]	622 nM	437 nM	0.213 nM
CCC(=O)N1CCC(c2ccc(NC(=O)N3CC(c4cccnc4)C3)cc2)C1 (stereo not drawn) [Example 279, N-[4-(1-propanoylpyrrolidin-3-yl)phenyl]-3-(pyridin-3-yl)azetidine-1-carboxamide]	47.6 nM	92.1 nM	0.204 nM
O=C(Nc1ccc(C2CCN(C(=O)c3ccoc3)C2)cc1)N1CC(c2cccnc2)C1 (stereo not drawn) [Example 264, N-{4-[1-(furan-3-ylcarbonyl)pyrrolidin-3-yl]phenyl}-3-(pyridin-3-yl)azetidine-1-carboxamide]	35.1 nM	40.9 nM	0.188 nM
CC(C)(C)OC(=O)N1CCC(c2ccc(NC(=O)N3CC(c4cnccc4Cl)C3)cc2)CC1 [Example 113, tert-butyl 4-[4-({[3-(4-chloropyridin-3-yl)azetidin-1-yl]carbonyl}amino)phenyl]piperidine-1-carboxylate]	113 nM	75.8 nM	14.7 nM
O=C(CC1CCCC1)N1CC(Oc2ccc(NC(=O)N3CC(c4cccnc4)C3)cc2)C1 [Example 153, N-(4-{[1-(cyclopentylacetyl)azetidin-3-yl]oxy}phenyl)-3-(pyridin-3-yl)azetidine-1-carboxamide]	8.03 nM	12.4 nM	0.436 nM
CC(C)(C)CC(=O)N1CCC(c2ccc(NC(=O)N3CC(c4cccnc4)C3)cc2)CC1 [Example 170, N-{4-[1-(3,3-dimethylbutanoyl)piperidin-4-yl]phenyl}-3-(pyridin-3-yl)azetidine-1-carboxamide]	14.8 nM	7.07 nM	0.364 nM
COCC(=O)N1CC[C@@H](Oc2ccc(NC(=O)N3CC(c4cccnc4)C3)cc2)C1 [Example 331, N-(4-{[(3R)-1-(methoxyacetyl)pyrrolidin-3-yl]oxy}phenyl)-3-(pyridin-3-yl)azetidine-1-carboxamide]	42.4 nM	81 nM	0.351 nM
CC(C)(C)CCN1CCC(c2ccc(NC(=O)N3CC(c4cccnc4)C3)cc2)CC1 [Example 233, N-{4-[1-(3,3-dimethylbutyl)piperidin-4-yl]phenyl}-3-(pyridin-3-yl)azetidine-1-carboxamide]	970 nM	653 nM	0.335 nM
CC(=O)C(=O)N1CCC(c2ccc(NC(=O)N3CC(c4cccnc4)C3)cc2)C1 (stereo not drawn) [Example 291, N-{4-[1-(2-oxopropanoyl)pyrrolidin-3-yl]phenyl}-3-(pyridin-3-yl)azetidine-1-carboxamide]	150 nM	25.8 nM	0.207 nM
O=C(Nc1ccc(OC2CCN(C(=O)C3CC3)CC2)cc1)N1CC(c2cccnc2)C1 [Example 47, N-(4-{[1-(cyclopropylcarbonyl)piperidin-4-yl]oxy}phenyl)-3-(pyridin-3-yl)azetidine-1-carboxamide]	64 nM	30.3 nM	0.268 nM
CC(C)CCN1CC(c2ccc(NC(=O)N3CC(c4cccnc4)C3)cc2)C1 [Example 252, N-{4-[1-(3-methylbutyl)azetidin-3-yl]phenyl}-3-(pyridin-3-yl)azetidine-1-carboxamide]	401 nM	526 nM	0.296 nM
O=C(CN1CCCC1)N1CC[C@@H](Oc2ccc(NC(=O)N3CC(c4cccnc4)C3)cc2)C1 [Example 304, 3-(pyridin-3-yl)-N-(4-{[(3R)-1-(pyrrolidin-1-ylacetyl)pyrrolidin-3-yl]oxy}phenyl)azetidine-1-carboxamide]	262 nM	594 nM	0.343 nM
Cn1cccc1C(=O)N1CCC(c2ccc(NC(=O)N3CC(c4cccnc4)C3)cc2)CC1 [Example 191, N-(4-{1-[(1-methyl-1H-pyrrol-2-yl)carbonyl]piperidin-4-yl}phenyl)-3-(pyridin-3-yl)azetidine-1-carboxamide]	7.46 nM	4.27 nM	0.291 nM
O=C(Nc1ccc(C2CCN(C(=O)c3ccsc3)C2)cc1)N1CC(c2cccnc2)C1 (stereo not drawn) [Example 268, 3-(pyridin-3-yl)-N-{4-[1-(thiophen-3-ylcarbonyl)pyrrolidin-3-yl]phenyl}azetidine-1-carboxamide]	22.8 nM	36.5 nM	0.225 nM
O=C(CCN1CCCC1)N1CCC(Oc2ccc(NC(=O)N3CC(c4cccnc4)C3)cc2)CC1 [Example 39, 3-(pyridin-3-yl)-N-[4-({1-[3-(pyrrolidin-1-yl)propanoyl]piperidin-4-yl}oxy)phenyl]azetidine-1-carboxamide]	115 nM	90.5 nM	0.338 nM
CC(C)CC(=O)N1CC(c2ccc(NC(=O)N3CC(c4cccnc4)C3)cc2)C1 [Example 208, N-{4-[1-(3-methylbutanoyl)azetidin-3-yl]phenyl}-3-(pyridin-3-yl)azetidine-1-carboxamide]	73.7 nM	48.6 nM	0.473 nM
COCCOCC(=O)N1CCC(c2ccc(NC(=O)N3CC(c4cccnc4)C3)cc2)CC1 [Example 176, N-(4-{1-[(2-methoxyethoxy)acetyl]piperidin-4-yl}phenyl)-3-(pyridin-3-yl)azetidine-1-carboxamide]	88.9 nM	65.5 nM	0.35 nM
CCCCC(=O)N1CC(Oc2ccc(NC(=O)N3CC(c4cccnc4)C3)cc2)C1 [Example 117, N-{4-[(1-pentanoylazetidin-3-yl)oxy]phenyl}-3-(pyridin-3-yl)azetidine-1-carboxamide]	9.83 nM	18.8 nM	0.327 nM
O=C(Nc1ccc(C2CN(C(=O)[C@@H]3CCCO3)C2)cc1)N1CC(c2cccnc2)C1 [Example 102, 3-(pyridin-3-yl)-N-(4-{1-[(2S)-tetrahydrofuran-2-ylcarbonyl]azetidin-3-yl}phenyl)azetidine-1-carboxamide]	67.9 nM	95.7 nM	0.286 nM
O=C(CN1CCOCC1)N1CCC(c2ccc(NC(=O)N3CC(c4cccnc4)C3)cc2)C1 (stereo not drawn) [Example 263, N-{4-[1-(morpholin-4-ylacetyl)pyrrolidin-3-yl]phenyl}-3-(pyridin-3-yl)azetidine-1-carboxamide]	365 nM	143 nM	0.239 nM
